Test results published in US11492347B2 (ENYO PHARMA, priority 2018, dated 2022).

Tested on: H1N1 (influenza A/New Caledonia/20/99)
Test: microbe, parasite or virus in culture
Type: cell-based
Settings: H1N1, A549, 48 h

`CN(c1ccc(C(=O)Nc2sc3c(c2C(=O)O)CC(C)(C)CC3)cc1)C1CCOCC1` [#160, 5,5-Dimethyl-2-[[4-[methyl(tetrahydropyran-4-yl)amino]benzoyl]amino]-6,7-dihydro-4H-benzothiophene-3-carboxylic acid] and `CC1CC(C)(C)Cc2sc(NC(=O)c3ccc(N(C)C4CCOCC4)cc3)c(C(=O)O)c21` (stereo not drawn) [#171] are within 1.5-fold of each other in IC50: 6 nM for the first, 6.3 nM for the second.

`CC1(C)CCc2sc(NC(=O)c3ccc(NC4CCOCC4)cc3)c(C(=O)O)c2C1` [#161, 5,5-Dimethyl-2-[[4-(tetrahydropyran-4-ylamino)benzoyl]amino]-6,7-dihydro-4H-benzothiophene-3-carboxylic acid] and `COC1CN(c2ccc(C(=O)Nc3sc4c(c3C(=O)O)CC(C)(C)CC4)cc2)C1` [#163, 2-[[4-(3-Methoxyazetidin-1-yl)benzoyl]amino]-5,5-dimethyl-6,7-dihydro-4H-benzothiophene-3-carboxylic acid] are within 1.5-fold of each other in IC50: 15 nM for the first, 18 nM for the second.

`CC1(C)Cc2c(sc(NC(=O)c3ccc(OCC4CCOCC4)cc3)c2C(=O)O)C(C)(C)C1` [#162, 5,5,7,7-Tetramethyl-2-[[4-(tetrahydropyran-4-ylmethoxy)benzoyl]amino]-4,6-dihydrobenzothiophene-3-carboxylic acid] and `CC1(C)Cc2c(sc(NC(=O)c3ccc(OC4CCOCC4)cc3)c2C(=O)O)C(C)(C)C1` [#170, 5,5,7,7-Tetramethyl-2-[(4-tetrahydropyran-4-yloxybenzoyl)amino]-4,6-dihydrobenzothiophene-3-carboxylic acid] are within 1.5-fold of each other in IC50: 39 nM for the first, 35 nM for the second.

`COC1CC(N(C)c2ccc(C(=O)Nc3sc4c(c3C(=O)O)CC(C)(C)CC4(C)C)cc2)C1` (stereo not drawn) [#165, 2-[[4-[(3-Methoxycyclobutyl)-methyl-amino]benzoyl]amino]-5,5,7,7-tetramethyl-4,6-dihydrobenzothiophene-3-carboxylic acid] and `COCC1CN(c2ccc(C(=O)Nc3sc4c(c3C(=O)O)CC(C)(C)CC4(C)C)cc2)C1` [#169, 2-[[4-[3-(Methoxymethyl)azetidin-1-yl]benzoyl]amino]-5,5,7,7-tetramethyl-4,6-dihydrobenzothiophene-3-carboxylic acid] are within 1.5-fold of each other in IC50: 11.7 nM for the first, 15.5 nM for the second.

Going from `CC1(C)Cc2c(sc(NC(=O)c3ccc(NCC4CCCCO4)cc3)c2C(=O)O)C(C)(C)C1` (stereo not drawn) [#166, 5,5,7,7-Tetramethyl-2-[[4-(tetrahydropyran-2-ylmethylamino)benzoyl]amino]-4,6-dihydrobenzothiophene-3-carboxylic acid] to `CC1(C)Cc2c(sc(NC(=O)c3ccc(C4CCOCC4)cc3)c2C(=O)O)C(C)(C)C1` [#174, 5,5,7,7-Tetramethyl-2-[(4-tetrahydropyran-4-ylbenzoyl)amino]-4,6-dihydrobenzothiophene-3-carboxylic acid], the IC50 rises from 6.7 nM to 39 nM (5.8-fold).

First: CC1(C)Cc2c(sc(NC(=O)c3ccc(OCC4COC4)cc3)c2C(=O)O)C(C)(C)C1 [#167, 5,5,7,7-Tetramethyl-2-[[4-(oxetan-3-ylmethoxy)benzoyl]amino]-4,6-dihydrobenzothiophene-3-carboxylic acid]
Second: COCCOc1ccc(C(=O)Nc2sc3c(c2C(=O)O)CC(C)(C)CC3(C)C)cc1 [#168, 2-[[4-(2-Methoxyethoxy)benzoyl]amino]-5,5,7,7-tetramethyl-4,6-dihydrobenzothiophene-3-carboxylic acid]
The IC50 of the first is 4.7-fold higher: 108 nM for the first, 23.2 nM for the second.

Going from `COCCNc1ccc(C(=O)Nc2sc3c(c2C(=O)O)CC(C)(C)CC3)cc1` [#173, 2-[[4-(2-Methoxyethylamino)benzoyl]amino]-5,5-dimethyl-6,7-dihydro-4H-benzothiophene-3-carboxylic acid] to `Cn1cc(C(=O)Nc2sc3c(c2C(=O)O)CC(C)(C)CC3(C)C)cn1` [#176, 5,5,7,7-Tetramethyl-2-[(1-methylpyrazole-4-carbonyl)amino]-4,6-dihydrobenzothiophene-3-carboxylic acid], the IC50 rises from 24 nM to 460 nM (19-fold).

Work on `CC1(C)Cc2c(sc(NC(=O)c3ccc(N4CCOCC4)nc3)c2C(=O)O)C(C)(C)C1` [#201, 5,5,7,7-Tetramethyl-2-[(6-morpholinopyridine-3-carbonyl)amino]-4,6-dihydrobenzothiophene-3-carboxylic acid] yielded an IC50 of 150 nM.
